Among the data in PubChem BioAssay (NCI) are TGI and GI50 values, retold here.

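Compound exposure: 48 hours, 5 concentrations, 96-well plates. GI50 = concentration required for 50% inhibition of growth. TGI is the concentration that stops growth completely.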

Assay in all cases: NCI-60 cell line screen, 48 h
Experiment [1] concerns TK-10 renal.
Experiment [2] relates to NCI/ADR-RES ovarian.
Experiment [3] has as its system BT-549 breast.
Experiment [4] deals with SK-MEL-5 melanoma.
The test system of experiment [5] is SNB-19 CNS.
Experiment [6] deals with 786-0 renal.
Experiment [7] has as its system HS 578T breast.
The test system of experiment [8] is CCRF-CEM leukemia.
Experiment [9] relates to SNB-75 CNS.
Experiment [10] relates to RXF 393 renal.

As to `Cc1cc(S(=O)(=O)Nc2nc3ncccc3[nH]2)c(S)cc1Cl`, the TGI in experiment [1], in [2], in experiment [3], in experiment [4], in experiment [5] and in experiment [6] was greater than 100 µM in each case. The TGI in [7], in [8], in experiment [9] and in [10] was greater than 100 µM each time.

Take `CCc1cccc2c3c([nH]c12)-c1ccccc1NC(=O)C3`: the TGI in experiment [1], in experiment [2], in experiment [3], in experiment [4], in experiment [5] and in experiment [6] was greater than 100 µM throughout. The TGI in experiment [7], in experiment [8] and in experiment [9] was greater than 100 µM throughout.

Consider `ClC(Cl)(Cl)C1CCOC1n1nnc2ccccc21` (stereo unspecified), for which the TGI in experiment [1] was greater than 100 µM; in experiment [2] it was greater than 100 µM; in [3], 86 µM; in experiment [4], greater than 100 µM; in [6], greater than 100 µM; in experiment [7] it was greater than 100 µM. Further, the figures for the TGI in experiment [8], in experiment [9] and in experiment [10] were greater than 100 µM, 54.3 µM and greater than 100 µM, respectively.

Regarding `COC(=O)[C@@H]1CS(=O)(=O)C(C(C)C)N1C(C)=O` (stereo partly specified), the TGI in experiment [1], in experiment [2], in [3], in experiment [4], in experiment [5] and in experiment [6] was greater than 100 µM each time. Further, the TGI in experiment [7], in experiment [9] and in [10] was greater than 100 µM in each case.

For the molecule `CC[C@@]1(O)C(=O)OCc2c1cc1n(c2=O)Cc2c-1nc1ccc(O)cc1c2[Si](C)(C)C(C)(C)C`, the TGI is greater than 92.7 µM in experiment [1]; 4.64 µM in experiment [2]; 1.17 µM in experiment [3]; 0.0387 µM in [4]; less than 0.0255 µM in experiment [6]; greater than 57.9 µM in experiment [7]. Moreover, the TGI in experiment [8] was less than 0.01 µM; in [9], 0.0162 µM; in experiment [10], 0.0378 µM.

Consider `NS(=O)(=O)c1nc(S(=O)(=O)O)c2[nH]cnc2n1`, for which the TGI in [1], in [2], in experiment [3], in experiment [4], in experiment [5] and in [6] was greater than 100 µM each time. Also, the TGI in experiment [7], in experiment [9] and in [10] was greater than 100 µM throughout.

`Clc1sc(Cl)c2c1[C@@H](Cl)C[C@@H]2Cl`: the TGI in experiment [1], in [2], in experiment [3], in [4], in [6] and in experiment [7] was greater than 100 µM each time. Also, the TGI in [8] and in experiment [9] was greater than 100 µM throughout.

As to `NC(Cc1ccc(OCc2ccccc2)cc1)C(=O)NC(Cc1ccccc1)C(=O)Oc1c(Cl)c(Cl)c(Cl)c(Cl)c1Cl` (stereo unspecified), the TGI is 28.9 µM in experiment [1]; 40.7 µM in [2]; 32.7 µM in experiment [3]; 32.4 µM in experiment [4]; 34 µM in experiment [5]; 31 µM in experiment [7]. The TGI is greater than 100 µM in experiment [8], 29.6 µM in experiment [9] and 28.3 µM in experiment [10].

Consider `C1=NCCNCCNCCN=Cc2ccc(cc2)OCc2cccc(n2)COc2ccc1cc2`, for which the TGI in experiment [2], in experiment [3], in [4], in experiment [5], in [6] and in [7] was greater than 100 µM throughout. For the same molecule, the TGI in [8], in [9] and in [10] was greater than 100 µM throughout.

For the molecule `CCn1c(=O)c2nc(SC)sc2n(-c2ccc(C)cc2)c1=O`, the TGI was greater than 100 µM in experiment [1]; greater than 100 µM in [2]; greater than 100 µM in experiment [3]; greater than 100 µM in experiment [4]; greater than 100 µM in experiment [5]; greater than 87.4 µM in experiment [7]. The values for the TGI in [8], in experiment [9] and in experiment [10] were greater than 100 µM, greater than 95.1 µM and greater than 100 µM, respectively. For the same molecule, the GI50 in [3] is 33 µM.

Consider `O=C1COc2cc(N3CCN(c4cccc(C(F)(F)F)c4)CC3)ccc2N1`, for which the TGI in experiment [1], in [2], in experiment [3], in experiment [4], in [5] and in experiment [6] was greater than 100 µM each time. In addition, the TGI in experiment [7], in experiment [8] and in experiment [9] was greater than 100 µM each time.

For `C/C=C(\C)C(=O)OC1CC(OC(C)=O)C2(C(=O)OC)COC3C2C1(C)C1C2(C(=O)OC)OCC1(C3O)C1(O)C3CC(C4(O)C=COC4O3)C1(C)O2` (stereo unspecified), the TGI in [1], in experiment [2], in [3], in [4], in [6] and in [7] was greater than 100 µM each time. Besides, the TGI in experiment [9] and in experiment [10] was greater than 100 µM each time.

For `COc1cccc(N=N/C(=N/NC(=O)c2ccc(C)cc2)c2ccc(N(CCC#N)CCC#N)cc2OC)c1`, the TGI in experiment [1], in [2], in [3], in experiment [4], in [5] and in [6] was greater than 100 µM in each case. Moreover, the TGI in experiment [7], in [8] and in experiment [10] was greater than 100 µM each time.

As for `Nc1ccc(-c2nc3ccccc3s2)cc1Cl`, the TGI in experiment [2], in experiment [3], in [4], in [5], in experiment [6] and in experiment [7] was greater than 100 µM throughout. Besides, the TGI in [8] was 98.3 µM; in experiment [9], greater than 93.5 µM; in [10] it was greater than 94.2 µM.
